As usually defined, the EC50 is the concentration that produces a half-maximal response.

We go through 46 molecules from PubChem BioAssay AID493058 (The Scripps Research Institute Molecular Screening Center, 2011).

Active and inactive are the calls of the source.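 Rule for the calls: active = EC50 of 10 µM or lower; inactive = EC50 above 10 µM.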 Where only a bound is given, the exact number is not on record here.

The test relates to DHL10 Bax/Bak-deficient cells, cytotoxicity, MTS absorbance. As to the kind of experiment: cytotoxicity in Bax/Bak-deficient DHL10 cells, late-stage follow-up, counter-screen for MCL1-BIM inhibitor project, cell-based, MTS absorbance, EC50 (AID 493058). (A counterscreen serves to expose hits that act by an unwanted route or on another target.)
With `Cc1ccc(-c2cc(C(=O)N3CCN(c4ncccn4)CC3)c3cc(Br)ccc3n2)o1`, the EC50 is > 25 µM (inactive).
Next, `CCc1nnc(NC(=O)c2cc(-c3ccco3)nc3ccccc23)s1`: > 25 µM (inactive).
The figure for `CCN(CC)C(=O)COc1ccc2c(-c3ccc(OC)cc3)cc(=O)oc2c1` is > 25 µM (inactive).
The figure for `CCc1nnc(NC(=O)c2cc(-c3ccc(C)o3)nc3ccccc23)s1` is > 25 µM (inactive); for `O=C(NC(=S)Nc1cccc(S(=O)(=O)NC2=NCCC2)c1)c1cc(-c2ccco2)nc2ccccc12` it is > 25 µM (inactive); for `COc1ccc(Cc2nnc(NC(=O)Cc3ccccn3)s2)cc1OC` it is > 25 µM (inactive).
As to `COc1ccc(Cc2nnc(NC(=O)Cc3ccc(Oc4ccccc4)cc3)s2)cc1OC`, the EC50 was > 25 µM (inactive).
Next, `COc1ccc(NC(=O)c2cc(-c3ccco3)nc3ccccc23)cc1`: > 25 µM (inactive).
The figure for `O=C(Nc1cccc(S(=O)(=O)NC2=NCCCCC2)c1)c1cc(-c2ccco2)nc2ccccc12` is > 25 µM (inactive); for `Cc1ccnc(NC(=O)c2cc(-c3ccco3)nc3ccc(Br)cc23)c1` it is > 25 µM (inactive).
For `COc1ccc(Cc2nnc(NC(=O)C3(c4ccccc4)CC3)s2)cc1OC`, the EC50 is > 25 µM (inactive).
The figure for `CN(C)C(=O)c1ccc(NC(=O)c2cc(-c3ccco3)nc3ccccc23)cc1` is > 25 µM (inactive); for `Cc1ccc(-c2cc(C(=O)N3CCN(c4ccccc4O)CC3)c3ccccc3n2)o1` it is > 25 µM (inactive); for `Cc1csc(NC(=O)c2cc(-c3ccco3)nc3ccccc23)n1` it is > 25 µM (inactive).
Next, `O=C(CCn1nnc2ccccc21)Nc1nnc(Cc2ccccc2)s1`: > 25 µM (inactive).
The figure for `COc1ccccc1NC(=O)c1cc(-c2ccc(C)o2)nc2ccccc12` is > 25 µM (inactive); for `Cc1ccc(-c2cc(C(=O)N(C)CC(=O)Nc3ccccc3Br)c3ccccc3n2)o1` it is > 25 µM (inactive).
For the molecule `Cc1ccc(-c2cc(C(=O)NCCN3CCOCC3)c3ccccc3n2)o1`, the EC50 is > 25 µM (inactive).
Next, `CCOC(=O)C1CCCN(C(=O)c2cc(-c3ccco3)nc3ccccc23)C1` (stereo unspecified): > 25 µM (inactive); `O=C(Nc1ccccc1N1CCOCC1)c1cc(-c2ccco2)nc2ccccc12`: > 25 µM (inactive).
As for `O=C(c1cc(-c2ccco2)nc2ccccc12)N1CCN(c2ccc(F)cc2)CC1`, the EC50 is > 25 µM (inactive).
The figure for `COc1ccc(Cc2nnc(NC(=O)Cc3ccc(-c4ccccc4)cc3)s2)cc1OC` is > 25 µM (inactive); for `Cc1ccc(-c2cc(C(=O)N3CC(C)CC(C)C3)c3ccccc3n2)o1` (stereo unspecified) it is > 25 µM (inactive).
As to `O=C(Nc1ccccn1)c1cc(-c2ccco2)nc2ccc(Br)cc12`, the EC50 was 10 µM.
Consider `Cc1ccc(-c2cc(C(=O)N3CCN(c4ccc(F)cc4)CC3)c3ccccc3n2)o1`, for which the EC50 was > 25 µM (inactive).
Next, `COc1ccc(NC(=O)c2cc(-c3ccc(C)o3)nc3ccccc23)cc1`: > 25 µM (inactive); `COc1ccc(Cc2nnc(NC(=O)CCc3cccs3)s2)cc1OC`: > 25 µM (inactive).
Next, `Cc1ccc(-c2cc(C(=O)N3CC(C)OC(C)C3)c3ccccc3n2)o1` (stereo unspecified): > 25 µM (inactive).
The figure for `COc1ccc(Cc2nnc(NC(=O)Cc3cccnc3)s2)cc1OC` is > 25 µM (inactive); for `COc1ccc(NC(=O)c2cc(-c3ccc(C)o3)nc3ccccc23)cc1OC` it is > 25 µM (inactive).
As to `Cc1cccc(NC(=O)c2cc(-c3ccco3)nc3ccccc23)n1`, the EC50 was > 25 µM (inactive).
Next, `COc1ccc(Cc2nnc(NC(=O)Cc3sc(=S)[nH]c3C)s2)cc1OC`: > 25 µM (inactive); `COc1ccc(Cc2nnc(NC(=O)c3cc(-c4ccco4)nc4ccccc34)s2)cc1OC`: > 25 µM (inactive).
Next, `Cc1ccc(-c2cc(C(=O)Nc3cccc(S(=O)(=O)N(C)C)c3)c3ccccc3n2)o1`: > 25 µM (inactive); `COc1ccc(Cc2nnc(NC(=O)Cc3cccs3)s2)cc1`: > 25 µM (inactive).
The figure for `NS(=O)(=O)c1ccc(CCNC(=O)c2cc(-c3ccco3)nc3ccccc23)cc1` is > 25 µM (inactive); for `CCCN(C(=O)c1cc(-c2ccco2)nc2ccccc12)c1c(N)n(Cc2ccccc2)c(=O)[nH]c1=O` it is > 25 µM (inactive); for `COc1ccc(NC(=O)c2cc(-c3ccc(C)o3)nc3ccccc23)c(OC)c1` it is > 25 µM (inactive).
Consider `CCCCN(C(=O)c1cc(-c2ccco2)nc2ccccc12)c1c(N)n(CCC)c(=O)[nH]c1=O`, for which the EC50 was > 25 µM (inactive).
The figure for `CCOc1cc(N2CCOCC2)c(OCC)cc1NC(=O)c1cc(-c2ccco2)nc2ccccc12` is > 25 µM (inactive); for `COc1ccc(Cc2nnc(NC(=O)C(=O)c3ccco3)s2)cc1OC` it is > 25 µM (inactive).
The figure for `CC(=O)N1CCN(C(=O)c2cc(-c3ccc(C)o3)nc3ccccc23)CC1` is > 25 µM (inactive); for `COc1ccc(Cc2nnc(NC(=O)Cc3cccs3)s2)cc1OC` it is > 25 µM (inactive).
With `COc1ccc(Cc2nnc(NC(=O)Cc3ccncc3)s2)cc1OC`, the EC50 is > 25 µM (inactive).
Next, `CCCCn1c(N)c(N(CC(C)C)C(=O)c2cc(-c3ccco3)nc3ccccc23)c(=O)[nH]c1=O`: > 25 µM (inactive).
Next, `Cc1ccc(-c2cc(C(=O)NCCCn3ccnc3)c3cc(Br)ccc3n2)o1`: > 25 µM (inactive).
